# Experimental data from patent publication US7524864B2, “Methods of treating sleep disorders” (Hypnion, Inc., priority 2004, dated 2009).
# Read-outs that look alike come from different tables or passages of the source.
# Key:
# [1] = molecular target: T1, human recombinant M1 expressed in CHO cells (Homo sapiens, UniProt P11229); details: reference compounds; read-out: Ki of reference compounds in M1 binding assay; cited from earlier work
# T1 construct: purchased PerkinElmer, Inc., Wellesley, Mass; host or cells: CHO cells
# T1 sequence (P11229 1-460): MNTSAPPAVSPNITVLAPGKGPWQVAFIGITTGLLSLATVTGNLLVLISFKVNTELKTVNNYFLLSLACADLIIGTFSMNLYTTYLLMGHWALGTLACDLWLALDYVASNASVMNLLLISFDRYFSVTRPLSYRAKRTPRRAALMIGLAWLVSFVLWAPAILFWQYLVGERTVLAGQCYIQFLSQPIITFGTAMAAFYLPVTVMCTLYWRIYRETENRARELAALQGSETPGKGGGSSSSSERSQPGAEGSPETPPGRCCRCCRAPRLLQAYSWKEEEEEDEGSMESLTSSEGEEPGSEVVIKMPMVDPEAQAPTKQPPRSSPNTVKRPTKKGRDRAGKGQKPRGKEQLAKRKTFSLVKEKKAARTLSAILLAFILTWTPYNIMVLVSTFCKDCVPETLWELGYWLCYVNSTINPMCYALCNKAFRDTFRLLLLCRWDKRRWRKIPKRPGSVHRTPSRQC
# [2] = test system: sleep (NREM, LUSB) in male Wistar rats; experiment: Sleep-wakefulness monitoring (SCORE-2000, EEG/EMG) in male Wistar rats; format: in vivo, rat; details: oral, CT-18
# Experimental: Sleep-wakefulness, locomotor activity and body temperature are monitored in male Wistar rats treated with a test compound (i.e., doxepin analog) initially at a concentration of 10 mg/kg. Higher and lower doses are assayed for select compounds (e.g., as high as 45 mg/kg, and as low as necessary to establish a no-effect dose). Treatments are administered at CT-18, the peak of the activity dominated period (6 hours after lights-off), and produced soporific (sleep-inducing) effects characterized by increased non-REM sleep time, increased sleep continuity, but without evidence of REM sleep inhibition or rebound insomnia.
# Sleep-wakefulness, locomotor activity and body temperature are monitored in vivo with the disclosed sleep-inducing agents. Adult, male Wistar rats (250 g at time of surgery, Charles River Laboratories, Wilmington Mass.) were anesthetized (2% isoflourane in medical grade oxygen) and surgically prepared with a cranial implant to permit chronic electro-encephalogram (EEG) and electromyogram (EMG) recording. Body temperature and locomotor activity were monitored via a miniature transmitter (Mini-Mitter, Bend, Oreg.) surgically placed in the abdomen. The cranial implant consisted of stainless steel screws (two frontal [+3.2 AP from bregma, ±2.0 ML] and two occipital [−6.9 AP, ±5.5 ML]) for EEG recording. Two Teflon®-coated stainless steel wires were positioned under the nuchal trapezoid muscles for EMG recording. All leads were soldered to a miniature connector prior to surgery, and gas sterilized in ethylene oxide. The implant assembly was affixed to the skull with dental acrylic. A minimum of three weeks was allowed for surgical recovery.
# Each rat is permanently housed in its own individual recording cage located within separate, ventilated compartments of custom-designed stainless steel cabinets. Each cage is enhanced with a filter-top riser and low-torque swivel-commutator. Food and water are available ad libitum. A 24-hr light-dark cycle (12 hours light, 12 hours dark) is maintained throughout the study. Animals are undisturbed for at least 48 hours before and after treatments.
# Sleep and wakefulness is determined using “SCORE-2000™”(Hypnion, Worcester, Mass.)—an internet-based sleep-wake and physiological monitoring system. The system monitored amplified EEG (bandpass 1-30 Hz), integrated EMG (bandpass 10-100 Hz), body temperature and non-specific locomotor activity (LMA) via telemetry, and drinking activity, continuously and simultaneously. Arousal states are classified on-line as non-REM (NREM) sleep, REM sleep, wake, or theta-dominated wake every 10 seconds. Total drinking and locomotor activity counts, and body temperature were quantitiated and recorded each minute, using EEG feature extraction and pattern-matching algorithms. […] The classification algorithm used individually-taught EEG-arousal-state templates, plus EMG criteria to differentiate REM sleep from theta-dominated wakefulness, plus behavior-dependent contextual rules (e.g., if the animal was drinking, it is awake). Drinking and locomotor activity intensity (LMA) are recorded as discrete events every 10 seconds, while body temperature was recorded each minute. Locomotor activity was detected by a telemetry receiver (Mini-Mitter) beneath the cage. Telemetry measures (LMA and body temperature) are not part of the scoring algorithm; thus, sleep-scoring and telemetry data were independent measures.
# Compounds are administered at CT-18, the peak of the activity-dominated period, in order to ensure prior wakefulness is sufficient to interact positively with hypnotic-drug effects, and sufficient time is allowed to view the time course of the treatment effect before lights-on (6 hours post-treatment). Compounds are suspended in sterile 0.25% or 0.5% methylcellulose (1-2 ml/kg). Treatments are administered orally as a bolus.
# A parallel group study design is employed. […]
# [3] = molecular target: T2, H1 receptor (Bos taurus, UniProt P30546); experiment: H1 histamine receptor competitive binding assay ([3H]pyrilamine displacement); design: species or system bovine
# T2 construct: the receptors are obtained from bovine cerebellar membrane tissue; from tissue; host or cells: bovine cerebellar membranes
# T2 sequence (P30546 whole entry): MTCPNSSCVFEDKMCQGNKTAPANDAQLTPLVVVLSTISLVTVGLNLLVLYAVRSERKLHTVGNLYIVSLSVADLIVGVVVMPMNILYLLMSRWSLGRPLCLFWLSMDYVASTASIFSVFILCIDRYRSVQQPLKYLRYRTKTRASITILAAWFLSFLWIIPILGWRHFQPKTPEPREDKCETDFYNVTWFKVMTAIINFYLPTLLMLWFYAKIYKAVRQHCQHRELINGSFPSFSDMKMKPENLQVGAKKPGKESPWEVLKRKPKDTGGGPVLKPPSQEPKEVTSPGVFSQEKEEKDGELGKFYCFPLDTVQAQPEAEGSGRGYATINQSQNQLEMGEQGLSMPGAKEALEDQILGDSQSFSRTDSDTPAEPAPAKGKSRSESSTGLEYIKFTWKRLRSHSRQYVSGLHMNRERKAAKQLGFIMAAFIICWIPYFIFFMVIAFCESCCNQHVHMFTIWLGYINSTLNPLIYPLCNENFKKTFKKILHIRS
# [4] = molecular target: T3, human recombinant M2 expressed in CHO cells (Homo sapiens, UniProt P08172); experiment: M2 muscarinic receptor binding assay ([3H]-scopolamine, N-methyl chloride displacement); details: Table 5; read-out: M2 inhibition constant Ki
# T3 construct: purchased PerkinElmer, Inc., Wellesley, Mass; host or cells: CHO cells
# T3 sequence (P08172 1-466): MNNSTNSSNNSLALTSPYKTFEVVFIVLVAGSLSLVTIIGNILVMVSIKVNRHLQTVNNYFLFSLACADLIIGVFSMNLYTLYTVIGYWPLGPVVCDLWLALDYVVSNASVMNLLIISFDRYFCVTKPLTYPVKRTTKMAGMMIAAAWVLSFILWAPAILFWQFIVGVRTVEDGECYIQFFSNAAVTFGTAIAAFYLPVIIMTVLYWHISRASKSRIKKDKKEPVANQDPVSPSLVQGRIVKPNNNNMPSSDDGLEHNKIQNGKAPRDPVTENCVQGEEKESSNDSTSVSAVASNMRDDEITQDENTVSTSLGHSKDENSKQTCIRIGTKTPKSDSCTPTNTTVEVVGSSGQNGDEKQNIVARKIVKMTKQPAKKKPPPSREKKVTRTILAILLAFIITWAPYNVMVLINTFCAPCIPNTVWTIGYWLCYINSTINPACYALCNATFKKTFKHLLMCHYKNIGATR
# [5] = molecular target: T4, human recombinant M3 expressed in CHO cells (Homo sapiens, UniProt P20309); experiment: M3 muscarinic receptor binding assay ([3H]-scopolamine, N-methyl chloride displacement); details: Table 5; read-out: M3 inhibition constant Ki
# T4 construct: purchased PerkinElmer, Inc., Wellesley, Mass; host or cells: CHO cells
# T4 sequence (P20309 whole entry): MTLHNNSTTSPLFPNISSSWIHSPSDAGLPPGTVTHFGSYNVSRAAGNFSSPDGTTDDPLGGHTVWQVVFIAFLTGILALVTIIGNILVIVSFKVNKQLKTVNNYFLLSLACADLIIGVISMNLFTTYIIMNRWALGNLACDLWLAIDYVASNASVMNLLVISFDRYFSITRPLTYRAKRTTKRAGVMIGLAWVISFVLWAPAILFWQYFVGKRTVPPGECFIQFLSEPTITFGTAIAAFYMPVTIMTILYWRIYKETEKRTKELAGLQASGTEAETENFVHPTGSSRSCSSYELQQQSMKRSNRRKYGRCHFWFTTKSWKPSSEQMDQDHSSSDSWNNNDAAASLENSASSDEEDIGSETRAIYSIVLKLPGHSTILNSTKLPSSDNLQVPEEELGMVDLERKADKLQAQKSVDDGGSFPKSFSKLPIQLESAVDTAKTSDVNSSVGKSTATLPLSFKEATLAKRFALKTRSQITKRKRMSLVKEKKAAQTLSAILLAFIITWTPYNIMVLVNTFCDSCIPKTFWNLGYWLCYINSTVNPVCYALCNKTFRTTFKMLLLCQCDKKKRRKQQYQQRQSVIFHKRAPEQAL
# [6] = molecular target: T1, human recombinant M1 expressed in CHO cells; experiment: M1 muscarinic receptor binding assay ([3H]-scopolamine, N-methyl chloride displacement); details: Table 5; read-out: M1 inhibition constant Ki
SMILES,Ki [1] [nM],LUSB (longest uninterrupted sleep bout) ([2]; 3 mg/kg) [min],LUSB (longest uninterrupted sleep bout) ([2]; 10 mg/kg) [min],NREM ([2]; 10 mg/kg) [min],LUSB (longest uninterrupted sleep bout) ([2]; 30 mg/kg) [min],NREM ([2]; 30 mg/kg) [min],LUSB (longest uninterrupted sleep bout) ([2]; 56 mg/kg) [min],NREM ([2]; 56 mg/kg) [min],LUSB (longest uninterrupted sleep bout) ([2]; 100 mg/kg) [min],NREM ([2]; 100 mg/kg) [min],"specificity for H1 over the muscarinic receptors ([3]; H1 versus M1, M2, M3 Ki)","Ki ([3]; bovine H1, Table 5, read-out: H1 (bovine) inhibition constant Ki) [nM]",Ki [4] [nM],Ki [5] [nM],Ki [6] [nM]
C[N+]1(C)CCC(OC(=O)C(c2ccccc2)c2ccccc2)CC1 [4-DAMP methiodide],0.27,,,,,,,,,,,,,,
CC(C)(CN1CCC(=C2c3ccc(F)cc3CSc3ccccc32)CC1)C(=O)O.Cl [Compound 8],,4.7 ± 3.2,6.3 ± 1.7,20 ± 5,10.9 ± 2.3,41 ± 9,9.3 ± 2.2,57 ± 7,13.2 ± 2.8,52 ± 8,specific for H1 over the muscarinic receptors,50.6,> 10000,> 10000,> 10000
